Legend:
ERα or ERβ = assay: ERE-tk-Luc luciferase activation in U937 cells transfected with ERα or ERβ; format: cell-based; details: human monocytic U937 cells
Protocol: (§1) Plasmid Construction. […] ERβ mutants were created with QuikChange site-directed mutagenesis kits (Stratagene), by using oligonucleotides containing the mutation. The mutants were sequenced with Sequenase kits (Amersham Pharmacia) to verify the presence of the mutation.
(§2) U937 cells were maintained as described previously, whereas U2OS, MDA-MB435, and MCF-7 cells were maintained and subcultured in phenol red-free Dulbecco's modified Eagle's medium/F-12 media containing 5% fetal bovine serum, 2 mM glutamine, 50 units/ml penicillin, and 50 μg/ml streptomycin. For experiments, cells were collected, transferred to a cuvette, and then electroporated with a Bio-Rad gene pulser as described previously using 3 μg of reporter plasmid and 1 μg of ERα or ERβ expression vectors. After electroporation, the cells were re-suspended in media and plated at 1 ml/dish in 12-well multiplates. […] The concentration of hormone required to produce a half-maximal induction (EC50) or inhibition (IC50) of luciferase activity was calculated with the Prism curve-fitting program (Graph Pad Software, version 2.0b). […] The cells were plated in duplicate at a density of 25,000 cells/35-mm plate in tissue culture medium containing 3% stripped fetal bovine serum. […] After 8 days the cells were counted with a Coulter counter.

ERβ [1] = molecular target: T1, ERβ (Homo sapiens, UniProt Q92731); details: in the presence of ERβ
Protocol: as §1, §2

ERβ [2] = molecular target: T1, ERβ; assay: Repression of TNF-α activation of TNF-RE-tk-Luc in U2OS cells, ERβ; format: cell-based; design: expressed in transfected cells; host or cells: U2OS (human osteosarcoma)
Protocol: as §2
The extracts (a and b) were than decanted and only the soluble material was used.

TNF-RE-tk-Luc = assay: Antiestrogen effect on TNF-RE-tk-Luc (Example 2); format: cell-based; details: for effect on the repression induced by E2: TNF-RE-tk-Luc; for activation of TNF-RE-tk-Luc: antiestrogens, in contrast to E2
Protocol: as §1, §2

breast cancer = details: among 5129 women in the treatment group, median follow-up 40 months; cited from earlier work
[3] = test system: estrogen receptor-positive breast cancer; details: five years of therapy; cited from earlier work
[4] = test system: primary invasive breast cancer; details: women at high risk for breast cancer; cited from earlier work

T1 sequence (Q92731 whole entry): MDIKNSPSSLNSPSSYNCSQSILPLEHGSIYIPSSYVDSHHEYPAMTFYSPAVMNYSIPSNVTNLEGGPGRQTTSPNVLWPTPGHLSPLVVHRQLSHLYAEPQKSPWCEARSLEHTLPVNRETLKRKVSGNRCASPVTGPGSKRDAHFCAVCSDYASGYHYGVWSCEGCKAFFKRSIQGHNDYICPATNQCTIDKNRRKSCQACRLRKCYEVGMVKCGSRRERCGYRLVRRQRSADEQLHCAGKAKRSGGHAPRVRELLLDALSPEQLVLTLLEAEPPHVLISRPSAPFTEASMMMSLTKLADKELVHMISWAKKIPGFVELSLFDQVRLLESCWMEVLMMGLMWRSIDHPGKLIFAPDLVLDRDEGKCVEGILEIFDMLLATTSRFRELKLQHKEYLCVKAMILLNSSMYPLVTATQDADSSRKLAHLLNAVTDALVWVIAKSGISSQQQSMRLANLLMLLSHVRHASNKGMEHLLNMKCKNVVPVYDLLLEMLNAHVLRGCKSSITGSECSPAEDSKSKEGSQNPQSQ

repression of TNF-α activation of TNF-RE-tk-Luc (ERβ [1])	repression of TNF-α activation of TNF-RE (ERβ [2])	SMILES	greater activation of the ERE in the presence of ERα compared to ERβ (ERα or ERβ)	effect on the repression induced by E2 (TNF-RE-tk-Luc)	activation of TNF-RE-tk-Luc (TNF-RE-tk-Luc)	cases of breast cancer (breast cancer)	reduction of mortality from breast cancer [3]	reduction of the risk of recurrences [3]	reduction of the risk of primary invasive breast cancer [4]
60-80%	100%	C[C@]12CC[C@@H]3c4ccc(O)cc4CC[C@H]3[C@@H]1CC[C@@H]2O [E2, estradiol]	10 fold	–	–	–	–	–	–
–	–	C[C@]12CC[C@@H]3c4ccc(O)cc4C[C@@H](CCCCCCCCC[S+]([O-])CCCC(F)(F)C(F)(F)F)[C@H]3[C@@H]1CC[C@@H]2O (stereo partly shown) [ICI 182, 780]	–	abolished	2 fold	–	–	–	–
–	–	O=C(c1ccc(OCCN2CCCCC2)cc1)c1c(-c2ccc(O)cc2)sc2cc(O)ccc12 [raloxifene]	–	abolished	2 fold	13 cases	–	–	–
–	–	CC/C(=C(\c1ccccc1)c1ccc(OCCN(C)C)cc1)c1ccccc1 [tamoxifen]	–	abolished	2 fold	–	22%	42%	49%

Source: patent US7815949B2, “Estrogenic extracts of Morus alba and uses thereof” (BioNovo, Inc., priority 2004, dated 2010)
